The nature of data set [1]: Metabolic stability: in vitro incubation with human liver microsomes and NADPH, LC-MS quantification. The conditions noted are these: pooled human liver microsomes, pH 7.4. A general note: Liver microsomes are vesicles of endoplasmic reticulum, rich in cytochrome P450 enzymes.
Description: (§1) The studied compounds were dissolved in acetonitrile (compounds 1, 3, 4, 10, 18, 19, 21, 22, 23, 24, 25, 26, 27, 28, 29), water (compounds 2, 7, 9, 11, 12, 13, 14, 15, 16, 17, 20, 30) or dimethyl sulfoxide (compounds 5 and 6), and diluted in phosphate buffer (pH = 7.4) to obtain 100 μM solutions. A 10 mM NADPH solution in phosphate buffer was prepared before incubations. Final concentrations in the incubation mixes were 5 μM of studied compound, 500 μM of NADPH and 1 mg/ml of human liver microsomes.
(§2) Using a MyBlock mini dry-bath (Benchmark Scientific, NJ, USA), mixtures without the compounds were subjected to a 5 min pre-incubation at 37°C before each experiment. Incubations were initiated with the addition of 15 μL of the compound solution to the mixture. The experiment lasted for 30 min. Immediately after addition of the compound, 50 μL of incubation mixture was collected and mixed with 50 μL of the stopping reagent, which was ice-cold acetonitrile containing 5 μM buspirone as internal standard. The next sample collection points were after 5, 10, 15 and 30 minutes of incubation time. After stopping the reaction, suspensions were centrifuged for 10 minutes at 7378 g using a Microfuge 16 (Beckman Instruments, Fullerton, CA, USA). Subsequently, 70 μL of supernatant thus obtained was directly analyzed using LC-MS (Agilent Technologies, Santa Clara, CA, USA).
The incubation and LC-MS analysis were repeated twice for each compound. To ensure that the biological conditions were valid, and no compound degradation occurs related to the addition of the enzyme solution, a negative control for each derivative was also performed.
The LC analysis was carried out using an Agilent 1260 Infinity system (Agilent Technologies) consisting of a binary pump, autosampler, temperature-controlled column compartment and UV variable wavelength detector, coupled with an Agilent 6120 Single Quad mass detector. Incubation samples were separated at 40°C on a Poroshell 120 EC-C-18 column (3 mm x 100 mm, 2.7 μm), provided by Agilent Technologies. The data were collected and processed in ChemStation software (v. B. 04.03, Agilent Technologies, Santa Clara, CA, USA). The injection volume was 10 μL. Mobile phases consisted of deionized water (phase A) and acetonitrile (phase B), both with 10 mM ammonium formate buffer (pH = 3) added. Gradient elution program was as follows: 0–15 min—5%-100% B, 15–16 min—100% B, 16–16.10 min—100%-5% B, 16.10–21 min 5% B. The flow rate was 0.5 ml/min. The total time for a single analysis was 21 minutes. MS detection was performed using an Agilent 6120 Single Quad mass spectrometer (Agilent Technologies) equipped with an electrospray (ESI) ion source. A nebulizer (pressure set to 40 psig) allowed for the gas phase ionization of studied compounds. Nitrogen (NM32LA Nitrogen Generator, Peak Scientific Instruments, Billerica, MA, USA) was used as the drying gas, with a flow rate of 10 L/min and a drying temperature of 300°C. Capillary voltage was set to 3000 V. Fragmentor voltage was set to 150 V. Chromatograms were collected with the use of single ion monitoring (SIM) in positive ion mode.
Half-life evaluation requires a compound depletion plot, which is obtained by plotting the time of incubation against the logarithmic peak area ratio (the ratio of the compound peak area to the internal standard peak area). […] After the elimination rate constant was designated, half-lives were calculated (Equation 1).
The nature of data set [2]: LC-Q-TOF-MS/MS metabolite structure elucidation after microsomal incubation. The conditions noted are these: HLM + NADPH incubation.
Description: as §1, §2
Tandem mass spectra of the metabolites were obtained with the use of an Agilent 1290 LC system connected to a hybrid Q-TOF tandem mass spectrometer (Agilent 6540 Series Accurate Mass Q-TOF-MS/MS). […] The Dual ESI source was operated in positive ion mode with the following conditions: the fragmentor voltage was set at 150V, nebulizer gas was set at 40 psig, capillary voltage was set at 3000 V, drying gas flow rate and temperature were set at 10 L/min and 300°C, respectively. The MS was operated in targeted MS/MS acquisition mode with a fixed collision energy of 35 V and a mass range of 30–1700 m/z. […] The instrument was operated in High Resolution mode (4 GHz). The Q-TOF was calibrated using reference masses 121.050873, 149.02332 and 922.009798 during the analysis run to ensure constant mass correction.
Several derivatives that varied in their degrees of non-pharmacophore ring saturation, R, R’ substituents and pharmacophore parts (2-pyridyl, 2-pyrimidynyl, phenyl-CF3), were chosen to collect fragmentation spectra using a Q-TOF tandem mass spectrometer and LC conditions as described earlier. […] The compounds’ structures and chromatographs were submitted to MassHunter Workstation Software MetaboliteID ver. B.02.00 build 2.0.121 to detect possible biotransformation products.
A further data set can be described thus: in vitro. The conditions noted are these: human, microsomes, pH 7.4.

“Also recorded” adds a separate entry of the source.

The half-life is the time in which the quantity being followed falls by half.

The molecule `O=C1CC2(CCCC2)CC(=O)N1CCCCN1CCN(c2ncccn2)CC1` [Buspirone, buspirone, reference compound] yielded a half-life at 5 μM in data set [1] of 6.59 min.
Take `O=c1c(-c2ccccc2)c2ccccn2c(=O)n1CCCCN1CCN(c2ncccn2)CC1` [Compound 6]: in data set [2], the “Type of biotransformation, metabolite M1” value was “hydroxylation” and the “Type of biotransformation, metabolite M2” value is given as “double hydroxylation in pharmacophore part”. This molecule also gave a half-life at 5 μM in data set [1] of 5.29 min.
Turning to `COc1ccccc1-c1c(=O)n(CCCCN2CCN(c3ncccn3)CC2)c(=O)n2ccccc12` [Compound 11], in data set [2], the “Type of biotransformation, metabolite M1” value was “Hydroxylation in the pharmacophore part”; the “Type of biotransformation, metabolite M2” value is given as “hydroxylation”; the “Type of biotransformation, metabolite M3” value was “O-demethylation reaction along with hydroxylation in the pharmacophore part; also recorded: O-demethylation and hydroxylation”. The molecule further displayed a half-life at 5 μM in data set [1] of 4 min.
Take `O=C1C(c2ccccc2)C2CCCCN2C(=O)N1CCCCN1CCN(c2ccccc2F)CC1` (stereo not shown) [Compound 25]: the half-life at 5 μM in the data set “in vitro” worked out at 5.77 min.
On to `O=c1c(-c2ccccc2)c2n(c(=O)n1CCCCN1CCN(c3ncccn3)CC1)CCCC2` [Compound 30], for which, in data set [2], the “Type of biotransformation, metabolite M1” value was “hydroxylation of the non-pharmacophore part of the molecules; also recorded: hydroxylation in both pharmacophore and non-pharmacophore site”; the “Type of biotransformation, metabolite M2” value is on record as “hydroxylation of the non-pharmacophore part of the molecules; also recorded: Hydroxylation in the non-pharmacophore part of the molecule; also recorded: hydroxylation”; the “Type of biotransformation, metabolite M3” value is given as “hydroxylation”. The molecule further had a half-life at 5 μM in data set [1] of 9.32 min.

The values are drawn from publication PMC4380424, “Prediction of Overall In Vitro Microsomal Stability of Drug Candidates Based on Molecular Modeling and Support Vector Machines. Case Study of Novel Arylpiperazines Derivatives” (PLoS ONE, 2015).
